Results as given in patent publication US9981930B1, “MAGL inhibitors” (ABIDE THERAPEUTICS, INC., priority 2016, dated 2018).

Key:
[1] = target: T1, MAGL Human (Homo sapiens, UniProt Q99685); assay: In vitro competitive activity-based protein profiling (human); assay type: biochemical; settings: human prefrontal cortex or cell membrane fractions; 30 min preincubation at 37° C.; FP-Rh or JW912 probe
T1 construct: Proteomes (human prefrontal cortex or cell membrane fractions); from tissue; host or cells: human prefrontal cortex or cell membrane fractions
T1 sequence (Q99685 1-303): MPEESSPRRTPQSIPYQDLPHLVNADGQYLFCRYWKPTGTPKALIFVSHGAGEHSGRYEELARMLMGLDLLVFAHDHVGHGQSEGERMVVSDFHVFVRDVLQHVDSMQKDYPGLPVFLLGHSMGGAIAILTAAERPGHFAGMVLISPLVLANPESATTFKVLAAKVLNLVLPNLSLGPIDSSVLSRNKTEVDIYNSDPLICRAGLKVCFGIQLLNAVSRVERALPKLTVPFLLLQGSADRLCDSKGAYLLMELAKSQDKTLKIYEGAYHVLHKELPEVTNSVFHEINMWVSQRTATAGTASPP
Experimental: In Vitro Competitive Activity-Based Protein Profiling (Human).
(§1) Proteomes (human prefrontal cortex or cell membrane fractions) (50 μL, 1.0-2.0 mg/mL total protein concentration) were preincubated with varying concentrations of inhibitors at 37° C. After 30 min, FP-Rh or JW912 (1.0 μL, 50 μM in DMSO) was added and the mixture was incubated for another 30 min at room temperature. Reactions were quenched with SDS loading buffer (15 μL-4×) and run on SDS-PAGE. Following gel imaging, serine hydrolase activity was determined by measuring fluorescent intensity of gel bands corresponding to MAGL using ImageJ 1.49k software.

[2] = target: T2, MAGL (Mus musculus, UniProt O35678); assay: Mouse brain proteomes from inhibitor treated mice (ex vivo activity-based protein profiling after oral gavage); assay type: in vivo; settings: 5 mg/kg oral gavage, C57Bl/6J mice, brain proteomes 4 h following administration
T2 construct: from tissue; host or cells: brain of wild-type C57Bl/6J mice
T2 sequence (O35678 1-303): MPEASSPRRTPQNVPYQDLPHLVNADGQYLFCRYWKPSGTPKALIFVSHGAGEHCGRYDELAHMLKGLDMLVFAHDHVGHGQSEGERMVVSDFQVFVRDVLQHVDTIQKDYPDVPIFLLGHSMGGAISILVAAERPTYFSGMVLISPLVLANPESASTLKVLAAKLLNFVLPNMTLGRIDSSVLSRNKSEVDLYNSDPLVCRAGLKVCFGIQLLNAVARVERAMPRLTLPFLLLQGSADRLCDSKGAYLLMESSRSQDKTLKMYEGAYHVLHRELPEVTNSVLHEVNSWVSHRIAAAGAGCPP
Experimental: as §1, with “(mouse brain membrane fraction” for “(human prefrontal cortex”, “lysates)” for “membrane fractions)”, “1.0” for “1.0-2.0”, “FP-Rh” for “FP-Rh or JW912”, “37° C.” for “room temperature.”, “(50” for “(15”
Preparation of Mouse Brain Proteomes from Inhibitor Treated Mice.

Row | IC50 [1] [µM] | inhibition at 5 mg/kg [2] [%] | Structure (SMILES)
1 | < 0.1 | – | O=C(O)CCNc1cc(Cl)ccc1CN1CCN(C(=O)OC(C(F)(F)F)C(F)(F)F)CC1 [Example 5, 3-((5-Chloro-2-((4-(((1,1,1,3,3,3-hexafluoropropan-2-yl)oxy)carbonyl)piperazin-1-yl)methyl)phenyl)amino)propanoic acid]
2 | < 0.1 | 25 to 75 | C[C@H](Nc1cc(C(F)(F)F)ccc1CN1CCN(C(=O)OC(C(F)(F)F)C(F)(F)F)CC1)C(=O)O [Example 7, (2-((4-(((1,1,1,3,3,3-hexafluoropropan-2-yl)oxy)carbonyl)piperazin-1-yl)methyl)-5-(trifluoromethyl)phenyl)-L-alanine]

The next lines start with the molecule.

Row | Structure (SMILES) | IC50 [1] [µM] | inhibition at 5 mg/kg [2] [%]
3 | O=C(O)CCCNc1cc(C(F)(F)F)ccc1CN1CCN(C(=O)OC(C(F)(F)F)C(F)(F)F)CC1 [Example 1, 4-((2-((4-(((1,1,1,3,3,3-Hexafluoropropan-2-yl)oxy)carbonyl)piperazin-1-yl)methyl)-5-(trifluoromethyl)phenyl)amino)butanoic acid] | < 0.1 | > 75
4 | O=C(O)CCCNc1cc(Cl)ccc1CN1CCN(C(=O)OC(C(F)(F)F)C(F)(F)F)CC1 [Example 2, 4-((5-Chloro-2-((4-(((1,1,1,3,3,3-hexafluoropropan-2-yl)oxy)carbonyl)piperazin-1-yl)methyl)phenyl)amino)butanoic acid] | < 0.1 | 25 to 75
5 | O=C(O)CNc1cc(Cl)ccc1CN1CCN(C(=O)OC(C(F)(F)F)C(F)(F)F)CC1 [Example 3, (5-Chloro-2-((4-(((1,1,1,3,3,3-hexafluoropropan-2-yl)oxy)carbonyl)piperazin-1-yl)methyl)phenyl)glycine] | < 0.1 | 25 to 75
6 | O=C(O)CCNc1cc(C(F)(F)F)ccc1CN1CCN(C(=O)OC(C(F)(F)F)C(F)(F)F)CC1 [Example 4, 3-((2-((4-(((1,1,1,3,3,3-Hexafluoropropan-2-yl)oxy)carbonyl)piperazin-1-yl)methyl)-5-(trifluoromethyl)phenyl)amino)propanoic acid] | < 0.1 | > 75
7 | O=C(O)CNc1cc(C(F)(F)F)ccc1CN1CCN(C(=O)OC(C(F)(F)F)C(F)(F)F)CC1 [Example 6, (2-((4-(((1,1,1,3,3,3-Hexafluoropropan-2-yl)oxy)carbonyl)piperazin-1-yl)methyl)-5-(trifluoromethyl)phenyl)glycine] | < 0.1 | –
